Measured values as given in paper PMC7177833, “2-Aminopyridine Analogs Inhibit Both Enzymes of the Glyoxylate Shunt in Pseudomonas aeruginosa” (International Journal of Molecular Sciences, 2020).
“And” between values parts separate entries of the source, which are not always exact repeats. Equal values may be shown once.

Key:
A-375 cells = assay: CellTiter-Glo luminescent cell viability assay (ATP), A-375; assay type: cell-based, human; conditions: IC50 cytotoxicity/IC50 P. aeruginosa growth inhibition in M9 acetate
Method: (§1) The number of viable cells based on ATP quantification was determined using the CellTiter-Glo® luminescent cell viability assay (Promega, Madison, WI, USA, lot no. 0000200446). Briefly, cells were seeded into white, flat-bottomed, sterile 96-well plates (PerkinElmer, Beaconsfield, UK) and incubated for 24 h. For A-375 cells, we used 10,000 cells/well, and for H27 cells, we used 7500 cells/well. Test compounds were diluted in assay medium (Glutamax DMEM with 5% FBS (Gibco)) and added to the plates in two-fold dilutions starting at 100 µM. Negative controls (0.5% DMSO) and positive controls (camptothecin, 1.6 µM for the A-375 cells and 50 µM for the H27 cells) were also included, and the plates were incubated for an additional 48 h (95% humidity, 5% CO2 at 37 °C). After incubation, the cells were washed with PBS. To each well, we then added 50 µL of assay medium plus 50 µL of CellTiter-Glo® reagent. The samples were then shaken for 2 min at 100 rpm at 25 °C, followed by a further 10 min at 25 °C to stabilize the luminescence signal. Luminescence was measured using a VarioSkan LUX multimode microplate reader (Thermo Fisher Scientific, Vantaa, Finland).

[1] = as above; assay type: cell-based, human; conditions: human; A-375 cells, 48 h, ATP luminescence; read-out: Cytotoxicity IC50 A-375
Method: as §1

H27 cells = assay: CellTiter-Glo luminescent cell viability assay (ATP), H27; assay type: cell-based, human; conditions: IC50 cytotoxicity/IC50 P. aeruginosa growth inhibition in M9 acetate
Method: as §1

[2] = as above; assay type: cell-based, human; conditions: human; H27 cells, 48 h, ATP luminescence; read-out: Cytotoxicity IC50 H27
Method: as §1

U937 cells = assay: CytoTox 96 LDH release cytotoxicity assay, U937; assay type: cell-based, human; conditions: IC50 cytotoxicity/IC50 P. aeruginosa growth inhibition in M9 acetate
Method: (§2) The CytoTox 96® nonradioactive cytotoxicity assay (Promega, Madison, WI, USA) was performed to determine the number of cells affected by necrosis measuring LDH release. A U937 cell suspension (5 × 10^5 cells/mL) was prepared, and 99.5 µL of this suspension were added to the wells of clear, sterile, 96-well, U-bottomed plates (Greiner, Dungannon, UK). The test compounds (0.5 µL of a 200 × concentrated stock) or 0.5% DMSO (control) were added to each well, and the plates were shaken for 1 min at 100 rpm, followed by 3.5 h at 37 °C with 5% CO2. At this point, CytoTox 96® 10× lysis solution was added to the wells reserved for total lysis. These samples represented the LDH released following complete cell lysis. After 30 min, 50 µL of supernatant from each test well and total lysis well was transferred to new 96-well plates (Thermo Fisher Scientific, Bishop’s Stortford, UK). Prethawed CytoTox 96® buffer was mixed with the CytoTox 96® substrate, and 50 µL were added into each well. The plates were incubated for 10 min in darkness at 25 °C. CytoTox 96® stop buffer (50 µL) was added, and the plates were incubated for a further 15 min. LDH release was quantified by measuring A492 nm in a CLARIOstar® multimode microplate reader (BMG Labtech, Aylesbury, UK).

[3] = CytoTox 96 LDH release cytotoxicity assay, U937; assay type: cell-based, human; conditions: human; U937 cells, LDH release
Method: as §2

MSPa [4] = target: T1, MSPa (Pseudomonas aeruginosa, UniProt Q9I636); assay: Kinetic mode of action on MSPa; assay type: biochemical; design: made in house
T1 sequence (Q9I636 whole entry): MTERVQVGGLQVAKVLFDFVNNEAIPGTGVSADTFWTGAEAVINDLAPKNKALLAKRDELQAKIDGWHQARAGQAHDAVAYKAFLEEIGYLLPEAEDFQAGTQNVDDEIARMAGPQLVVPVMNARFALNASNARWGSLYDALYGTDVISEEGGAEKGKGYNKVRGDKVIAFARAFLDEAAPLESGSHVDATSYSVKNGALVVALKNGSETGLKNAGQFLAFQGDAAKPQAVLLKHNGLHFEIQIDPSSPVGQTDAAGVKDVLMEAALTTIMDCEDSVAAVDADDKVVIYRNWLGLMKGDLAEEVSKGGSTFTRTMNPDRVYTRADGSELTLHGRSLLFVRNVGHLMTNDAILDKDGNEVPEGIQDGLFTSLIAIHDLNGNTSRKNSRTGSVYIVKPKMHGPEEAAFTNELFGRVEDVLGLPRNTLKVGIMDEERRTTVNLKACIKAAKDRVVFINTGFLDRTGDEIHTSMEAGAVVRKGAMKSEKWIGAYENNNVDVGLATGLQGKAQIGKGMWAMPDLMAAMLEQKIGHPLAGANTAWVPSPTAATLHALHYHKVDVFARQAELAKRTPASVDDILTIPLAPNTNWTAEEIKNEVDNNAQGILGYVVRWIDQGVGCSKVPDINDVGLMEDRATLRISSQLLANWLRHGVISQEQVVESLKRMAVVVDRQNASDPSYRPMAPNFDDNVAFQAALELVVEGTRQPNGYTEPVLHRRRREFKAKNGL
Method: (§3) The enzymatic activity of purified ICLPa and MSPa was assayed essentially as previously described. Compounds were added to the reaction mixtures (minus substrates) and incubated for 5 min at 37 °C. The enzyme concentration in the reaction mixtures was 170 nM for ICL and 25 nM for MS (based on the concentration of the monomer in each case). […] The reactions were initiated by the addition of pH-adjusted substrates, and the initial rates were recorded as A324 nm (for ICLPa) and A412 nm (for MSPa) using a Biospectrometer (Eppendorf, Stevenage, UK). Substrate turnover was calculated from the molar extinction coefficient of the assay products: Glyoxylate-phenylhydrazone (16,800/M/cm) for ICLPa and 2-nitro-5-thiobenzoic acid (14,150/M/cm) for MSPa.
(§4) The mode of action of SB002 on MSPa and ICLPa was determined by titrating the respective substrates of each enzyme in the presence of three fixed concentrations of SB002 (selected to lie around the measured IC50 value) and measuring the reaction rates as outlined in Section 4.3. Double-reciprocal plots and best-fit inhibition models (GraphPad Prism v. 7.04) were used to assess the mode of inhibition. Inhibition constants were calculated using GraphPad Prism v. 7.04 (GraphPad Software, Inc., La Jolla, CA, USA). Each data point represents the mean ± SD for three independent replicates.

ICLPa [5] = target: T2, ICLPa (Pseudomonas aeruginosa, UniProt Q9I0K4); assay: Isothermal titration calorimetry, ICLPa; conditions: ITC
T2 sequence (Q9I0K4 1-531): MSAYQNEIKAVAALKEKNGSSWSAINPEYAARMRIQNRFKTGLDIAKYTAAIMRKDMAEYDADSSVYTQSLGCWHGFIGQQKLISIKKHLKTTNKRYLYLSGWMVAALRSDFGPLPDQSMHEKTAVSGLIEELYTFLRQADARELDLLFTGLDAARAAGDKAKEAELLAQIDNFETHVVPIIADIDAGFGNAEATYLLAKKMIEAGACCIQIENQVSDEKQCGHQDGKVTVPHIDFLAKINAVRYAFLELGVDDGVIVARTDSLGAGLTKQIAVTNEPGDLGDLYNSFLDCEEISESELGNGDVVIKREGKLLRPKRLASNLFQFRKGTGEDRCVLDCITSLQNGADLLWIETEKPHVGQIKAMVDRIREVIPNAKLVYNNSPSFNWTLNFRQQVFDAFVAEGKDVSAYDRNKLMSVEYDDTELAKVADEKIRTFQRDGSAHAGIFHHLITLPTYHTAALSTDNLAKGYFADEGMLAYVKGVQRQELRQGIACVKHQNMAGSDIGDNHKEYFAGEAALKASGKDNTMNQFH
Method: (§5) Protein samples were dialyzed (2 × 1 L) in a D-tube dialyzer (Merck, Watford, UK) for 3 h in 25 mM Tris-HCl, 100 mM NaCl, and 0.1 mM TCEP (pH 7.5). […] The syringe and the cell both contained a final concentration of 0.1% DMSO. The injection parameters for MSPa were: Reference power 15 µcal/sec, initial injection of 3 µL (3.6 sec per injection) with subsequent injections of 10 µL (12 sec per injection). Injections were spaced by 150 sec with a filter period of 2 sec. The injection parameters for ICLPa were: Reference power 15 µcal/sec, initial injection of 3 µL (3.6 sec per injection) with subsequent injections of 8 µL (10 sec per injection). Injections were spaced by 170 sec with a filter period of 2 sec. Data were analyzed in NITPIC (NITPIC, Bethesda, MD, USA) [31] for baseline calculations and then fit for thermodynamic parameters using the OneSite model in Origin 7.0 software (Origin Software Solutions, Bristol, UK). Each titration was carried out in duplicate.

MSPa [6] = target: T1, MSPa; assay: Isothermal titration calorimetry, MSPa
Method: as §5

ICLPa [7] = target: T2, ICLPa; assay: Kinetic mode of action on ICLPa; assay type: biochemical; design: made in house; conditions: isocitrate titrated; uncompetitive model, GraphPad Prism
Method: as §3, §4

[8] = 25 °C, reverse titration, ICLPa
[9] = ITC, 25 °C, reverse titration, MSPa

**Q.** With CC(C)(C)OC(=O)/N=C(\NC(=O)OC(C)(C)C)Nc1cc(C#N)ccn1 [SB023] as the compound, how does the “Therapeutic index A-375” value (A-375 cells) read?
**A.** 11.95

**Q.** And the IC50 at 48 h [1]?
**A.** 106 µM

**Q.** What about the “Therapeutic index H27” value (H27 cells) of the same compound?
**A.** 23.27

**Q.** And the IC50 at 48 h [2]?
**A.** 205 µM

**Q.** And the “Therapeutic index U937” value (U937 cells)?
**A.** 364 and 364.37

**Q.** What about the IC50 at 3.5 h [3] of the same compound?
**A.** 3220 µM

**Q.** Which Ki (MSPa [4]) does the source give for CC(C)(C)OC(=O)/N=C(\NC(=O)OC(C)(C)C)Nc1cc(Cl)ccn1 [SB002] here?
**A.** 4.5 µM

**Q.** And the “Mode of inhibition of MSPa with respect to acetyl-CoA” value (MSPa [4]; acetyl-CoA varied, saturating (200 µM) glyoxylate)?
**A.** competitive mode of inhibition

**Q.** And the “Ki’ (binding to the ES complex), MSPa” value (MSPa [4]; glyoxylate varied, 200 µM acetyl-CoA)?
**A.** 3.9 µM

**Q.** And the “Mode of inhibition of MSPa with respect to glyoxylate” value (MSPa [4]; glyoxylate varied, saturating (200 µM) acetyl-CoA)?
**A.** uncompetitive inhibition at the lower inhibitor concentrations tested, and noncompetitive inhibition at the higher concentration of inhibitor

**Q.** And the Ka (ICLPa [5]; [8])?
**A.** 718000 ± 149000 M

**Q.** What about the Kd (ICLPa [5]; [8]) of the same compound?
**A.** 1.43 µM

**Q.** And the ΔG (ICLPa [5]; [8])?
**A.** −7.98 ± 3.44×10^−1 kcal/mol

**Q.** And the ΔH (ICLPa [5]; [8])?
**A.** −4.22 ± 3.44×10^−1 kcal/mol

**Q.** And the “−TΔS” value (ICLPa [5]; [8])?
**A.** -3.76 kcal/mol

**Q.** What about the “n (binding sites)” value (ICLPa [5]; per monomeric unit of ICLPa) of the same compound?
**A.** 0.53 and 0.53 ± 3.25 × 10^−2

**Q.** And the Kd (MSPa [6])?
**A.** 0.0286 ± 0.0016 µM

**Q.** What about the Ka (MSPa [6]; [9]) of the same compound?
**A.** 3.56e+07 ± 1.86e+06 M

**Q.** What about the ΔG (MSPa [6]; [9]) of the same compound?
**A.** −10.31 ± 1.79×10^−3 kcal/mol

**Q.** And the ΔH (MSPa [6]; [9])?
**A.** −0.47 ± 1.79×10^−3 kcal/mol

**Q.** What about the “−TΔS” value (MSPa [6]; [9]) of the same compound?
**A.** -9.84 kcal/mol

**Q.** What about the “n (binding sites)” value (MSPa [6]; ITC, per monomeric unit of MSPa) of the same compound?
**A.** 0.35 and 0.35 ± 8.41 × 10^−4

**Q.** And the “Ki’ (inhibition constant for binding to the enzyme-substrate complex), ICLPa” value (ICLPa [7])?
**A.** 21.3 µM

**Q.** And the “Therapeutic index H27” value (H27 cells)?
**A.** 93 and 93.73

**Q.** And the IC50 at 48 h [2]?
**A.** 98.4 µM

**Q.** And the “Therapeutic index U937” value (U937 cells)?
**A.** 17 and 17.31

**Q.** What about the IC50 at 3.5 h [3] of the same compound?
**A.** 18.2 µM
